# Data reported in the supplement of paper PMC10307832.
# Columns and labels:
# Assay in all cases: relative viability (nuclei count vs DMSO), 5 days (fraction); higher = more cells survive
# [1] = compound: COCC[n+]1c2c(n(Cc3cnccn3)c1C)C(=O)c1ccccc1C2=O [YM155] + C[C@]1(O)C[C@@H](c2nc(-c3ccc4ccc(-c5ccccc5)nc4c3)c3c(N)nccn32)C1 [Linsitinib] (partner 1 µM)
# Procedure, shortened: (§1)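 The day after seeding in 1536-well plates, lung cancer cell lines were treated by pin tool with a single drug, or with a fixed anchor-drug dose together with five library-drug doses (not always all listed) in √10 steps. After 5 days, a combined fix-and-stain solution (final 0.05% Triton X-100, 1% formaldehyde, 1 ug/ml Hoechst) was added. Nuclei counted on 4× images gave relative viability as treated counts over vehicle counts, reported as the median of duplicate plates.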
# [2] = compound: CC(C)(C)c1cc(NC(=O)Nc2ccc(-c3cn4c(n3)sc3cc(OCCN5CCOCC5)ccc34)cc2)no1 [Quizartinib] + Cc1nc(NC(=O)N2CCC[C@H]2C(N)=O)sc1-c1ccnc(C(C)(C)C(F)(F)F)c1 [Alpelisib] (partner 2 µM)
# Procedure, shortened: as §1
# [3] = compound: CC(C)(C)c1cc(NC(=O)Nc2ccc(-c3cn4c(n3)sc3cc(OCCN5CCOCC5)ccc34)cc2)no1 [Quizartinib] + O=C(c1cc(Cc2n[nH]c(=O)c3ccccc23)ccc1F)N1CCN(C(=O)C2CC2)CC1 [Olaparib] (partner 8 µM)
# Procedure, shortened: as §1
# [4] = compound: COCC[n+]1c2c(n(Cc3cnccn3)c1C)C(=O)c1ccccc1C2=O [YM155] + CC(C)C[C@H](NC(=O)[C@H](Cc1ccccc1)NC(=O)c1cnccn1)B(O)O [Bortezomib] (partner 0.002 µM)
# Procedure, shortened: as §1
Cell Line,relative viability ([1]; first compound 0.002 µM),relative viability ([1]; first compound 0.006325 µM),relative viability ([1]; first compound 0.02 µM),relative viability ([1]; first compound 0.06325 µM),relative viability ([2]; first compound 0.001 µM),relative viability ([2]; first compound 0.003162 µM),relative viability ([2]; first compound 0.01 µM),relative viability ([2]; first compound 0.03162 µM),relative viability ([2]; first compound 0.1 µM),relative viability ([3]; first compound 0.001 µM),relative viability ([3]; first compound 0.003162 µM),relative viability ([3]; first compound 0.01 µM),relative viability ([3]; first compound 0.03162 µM),relative viability ([3]; first compound 0.1 µM),relative viability ([4]; first compound 0.002 µM),relative viability ([4]; first compound 0.006325 µM),relative viability ([4]; first compound 0.02 µM),relative viability ([4]; first compound 0.06325 µM)
201T,0.98,0.984,1.03,1.06,0.759,0.957,0.988,0.987,0.982,0.581,0.802,0.833,0.87,0.857,1.04,1.13,1.09,1.06
A549,0.61,0.576,0.544,0.732,0.661,0.763,0.849,–,0.833,–,0.327,0.378,0.257,0.439,–,–,–,–
A-427,1.06,1.22,1.12,1.09,1.06,1,1.12,1.06,1.04,0.736,0.719,0.687,0.586,0.711,0.972,0.99,1.17,0.896
ABC-1,0.727,0.457,0.153,0.233,0.951,0.996,1.02,0.497,1.12,–,0.807,0.845,0.911,0.956,0.271,0.4,0.241,0.209
BEN,0.922,1.03,0.878,0.929,0.919,0.863,1.05,0.795,0.969,1.11,1.02,0.991,0.841,1.02,0.665,0.849,0.852,0.906
CAL-12T,0.818,0.98,0.9,0.781,1.03,1.08,1.29,0.467,1.47,0.617,0.76,0.674,0.594,0.841,–,1.04,1.29,0.895
COR-L23,0.846,0.857,0.463,0.174,0.725,0.708,0.843,0.61,0.759,0.34,0.356,0.319,0.274,0.247,0.923,0.929,0.617,0.362
COR-L 105,1,1.13,1.04,0.672,0.751,0.898,1.12,0.527,1.05,0.705,0.795,0.65,–,0.863,0.682,0.81,0.958,0.786
Calu-6,0.946,0.836,0.848,0.175,0.92,0.915,1,0.761,0.947,0.604,0.549,0.512,0.492,0.64,0.966,0.84,0.298,0.188
